Usually bioavailability stands for the share of a dose that reaches the circulation, judged against a reference dose that is usually intravenous. As a reminder, the Cmax is the maximum level reached in the sampled fluid or tissue.

The series in a line: In vivo pharmacokinetics in Beagle dogs. Conditions: male Beagle dogs. The source says:
Study on the In Vivo Pharmacokinetics in Beagle Dogs
The purpose of the experiment: Male beagle (Beagle) dogs were used as test animals and were given a single administration to determine the plasma concentration of the compound and evaluate the pharmacokinetic behavior.
Experimental method: Six male Beagle dogs were divided into 2 groups, with 3 dogs in an intravenous injection group and 3 dogs in an oral administration group. In the intravenous injection group, the test compound was mixed with an appropriate amount of vehicle (20% polyethylene glycol-400 (PEG400)/10% polyethylene glycol-15 hydroxy stearate (available from solutol)/70% water), then vortexed and sonicated to prepare 1 mg/mL clear solution, which was filtered by microporous membrane. In the oral administration group, 20% polyethylene glycol-400 (PEG400)/10% polyethylene glycol-15 hydroxy stearate (available from solutol)/70% water was used as a vehicle and mixed with the test compound, then vortexed and sonicated to prepare 1 mg/mL clear solution. The dogs were given intravenous administration at a dose of 1 mg/kg or oral administration at a dose of 2 mg/kg. Whole blood was collected at a certain period of time to prepare the plasma. The drug concentration of the plasma was analyzed by LC-MS/MS method, and the pharmacokinetic parameters were calculated using Phoenix WinNonlin software (Pharsight Company, USA).

Molecules are shown by their SMILES.

With `CCc1ccc([C@@H]2O[C@H](SC)[C@@H](O)[C@H](O)[C@H]2O)cc1Cc1ccc(C2=CCC(F)(F)CC2)cc1` [WXD010], the clearance (dog, plasma, intravenous 1 mg/kg or oral 2 mg/kg, read-out: Cl (clearance rate)) was 6.9 mL/min/kg. Further, the half-life (dog, plasma, intravenous 1 mg/kg or oral 2 mg/kg, read-out: T1/2 (half-life) (converted)) is 2.4 h. Besides, the Vd (dog, plasma, intravenous 1 mg/kg or oral 2 mg/kg, read-out: Vdss (distribution volume)) is 1.49 L/kg. Also, for the setting “dog, plasma, intravenous 1 mg/kg, oral 2 mg/kg, read-out: F % (oral bioavailability)”, the bioavailability is 82%. For the setting “dog, single administration, intravenous 1 mg/kg or oral 2 mg/kg, plasma”, this compound yielded a Cmax of 1290 nM. Also, the “Oral DNAUC (AUCPO/Dose)” value (oral 2 mg/kg) was 4051 nM · h/mpk.

(Values after patent US20200331950A1, “SGLTS INHIBITOR AND APPLICATION THEREOF” (SHANDONG DANHONG PHARMACEUTICAL CO., LTD., priority 2018, published 2020).)
